The record followed here is article PMC10321287, “β-amyloid binds to microglia Dectin-1 to induce inflammatory response in the pathogenesis of Alzheimer's disease” (International Journal of Biological Sciences, 2023).

The test system of data set [1] is Dectin-1. Briefly: Co-IP of APP/β-amyloid and Dectin-1 in brain lysates. The data set is classed as binding, mice. The note with it: lysates from WT and Aβ42 brain tissues, Protein A magnetic beads. As for the experimental part:
The triggering receptor expressed on myeloid cells 2 (Trem2) is a microglial surface receptor genetically linked to the risk of AD [28]. Most Aβ functions in microglia are thought to be mediated by its binding to Trem2 [29]. […] Trem2 is the currently reported microglia receptor that can directly bind to Aβ, and we used it as a positive control in this experiment. […] Next, we performed a protein interaction analysis using Co-IP. APP/β-amyloid was added to Protein A magnetic beads as a bait protein, and lysates from WT and Aβ42 brain tissues were added. […] In turn, we could also capture the expression of APP/β-amyloid protein using Dectin-1 as a bait protein (Figure 6C). […] Therefore, we used surface plasmon resonance (SPR) to identify direct Aβ42-Dectin-1 interactions at the molecular level. […] Nuclei are counterstained with DAPI (blue) [scale bar = 5 μm]. (B) Bio-Aβ42 is added to streptavidin-agarose beads and incubated. Biotin alone was used as control. Lysates prepared from BV2 cells were added to beads. The eluent was loaded onto a polyacrylamide gel for western blot analysis. Total lysates were used as input controls. Trem2 was used as a positive control. (C) The Dectin-1-APP/ β-amyloid interaction is analyzed by co-immunoprecipitation in the brains of WT and model mice. […] Mean KD constant derived from five separate experiments. (E) 3D binding model of dectin-1 and amyloid beta peptide. […]

For data set [2], the system named is BV2 cells. The data set is described as follows: Microglia phagocytosis and clearance of FITC-Aβ42 (flow cytometry). The data set is classed as cell-based. The note with it: 20 μM FITC-Aβ42, 2 h (phagocytosis) then 24 h in FITC-Aβ-free medium (clearance), Dectin-1-deficient BV2 cells. On the technique in general: Flow cytometry measures light scatter and fluorescence of single cells or particles in a stream.
Description: After incubation, the medium containing FITC-Aβ was removed, and the cells were washed three times with 1xPBS. BV2 cells were collected by centrifugation at 3000rpm for 5min, and resuspended in ice-cold 1xPBS solution. […] Cells were cultured in the FITC-Aβ-free medium for another 24 hours. Collect the cells and detect the level of intracellular Aβ by flow cytometry.

In data set [3] the test system is NF-κB p65. Briefly: p65 nuclear translocation in BV2 cells (immunofluorescence). The note with it: Aβ42-stimulated BV2 cells, siRNA targeting Dectin-1. The data set is classed as cell-based. The protocol: Properly treated BV2 cells were fixed in 4% paraformaldehyde (PFA) for 15-20 min. The BV2 cells were then incubated with 1x PBS containing 0.1% Triton X-100 (PBST) for 20 min to increase membrane permeability. After block with 1% BSA for 1 h at room temperature, the primary antibody (1:100) was added and incubate overnight at 4 °C. Next day, the cells were washed three times with 1xPBS and incubated with fluorophore conjugated secondary antibody (1:500) for 2h. Finally, one drop of antifade mounting medium with DAPI (P0131, Beyotime) was added to stain the Nuclei. Then, sections were observed and analyzed under a Nikon A1 confocal microscope.
(§1) Figure 5 Dectin-1 interference prevents Aβ42-induced inflammatory response in BV2 cells. (A) Time-course of Dectin-1-Syk interaction. […] (B) HEK-293T cells were transfected with Flag-tagged Dectin-1 (Flag-D1) and HA-tagged Dectin-1 (HA-D1). […] (C) Time-course of Syk phosphorylation. […] Total proteins were extracted and probed for p-Syk and Syk levels. GAPDH was used as loading control. (D) Dose-course of Syk phosphorylation. […] Total proteins were used to measure p-Syk and Syk levels. GAPDH was used as loading control. (E) Determination of Dectin-1 interference efficiency in BV2 cells. […] (H) TNFα release in cell supernatant measured by ELISA. (I) IL-1β release in in cell supernatant measured by ELISA. […]

Data set [4] has as its system PC12 cells. The data set is described as follows: PC12 damage by BV2-conditioned medium. The data set is classed as cell-based. The note with it: medium of Dectin-1-deficient BV2 cells exposed to Aβ42, PC12 treated 24 h.
Description: To test cellular apoptosis, TUNEL assay was performed (C1098, Beyotime, Shanghai, China). For cells: Properly treated BV2 cells were fixed with 4% PFA for 20 min and washed with PBST for 3 times. Then cells were incubated with TUNEL test solution (5 μl of TdT enzyme and 45 μl of fluorescent labeling solution) under dark condition for 1h. After washing with 1xPBS for three times, nuclei were stained with DAPI. The apoptotic cells (green fluorescence) were observed under fluorescent microscopy and calculated as a percentage of the total number of cells. For brain tissue: Processed tissue samples were incubated with 50 μl of TUNEL reaction mixture for 1h at 37℃ under dark conditions. Color developed in DAB coloring solution. Apoptosis index (brown color) in the hippocampus area were measured using this formula: apoptosis index (%) = (apoptotic neurons / total neurons) × 100%.
Data set [5] has as its system Tnfa, Il1b, IL-6, Cox2, and Inos. The data set is described as follows: mRNA levels of inflammatory genes (real-time qPCR). The data set is classed as cell-based. The note with it: Aβ42-stimulated, normalized to GAPDH. The protocol: Total RNA was isolated from cultured BV2 cells and brain tissues using TRIzol reagent (Thermo Fisher, 15596026) by standard techniques. Total RNA concentration was measured by a spectrophotometer. Then, PrimeScript RT-reagent Kit (Takara, RR037A) was used for cDNA synthesis. Real-time PCR amplification reactions were carried out on CFX96 Touch Real-Time PCR Detection System (Bio-Rad) using TB Green Premix Ex Taq II (Takara; RR820A). Quantification of the mRNA expression was calculated by […] method with GAPDH normalization. Primer sequences used in this study were presented in Supplementary Table S2.
Figure 5 Dectin-1 interference prevents Aβ42-induced inflammatory response in BV2 cells. (A) Time-course of Dectin-1-Syk interaction. […] (B) HEK-293T cells were transfected with Flag-tagged Dectin-1 (Flag-D1) and HA-tagged Dectin-1 (HA-D1). […] (C) Time-course of Syk phosphorylation. […] Total proteins were extracted and probed for p-Syk and Syk levels. GAPDH was used as loading control. (D) Dose-course of Syk phosphorylation. […] Total proteins were used to measure p-Syk and Syk levels. GAPDH was used as loading control. (E) Determination of Dectin-1 interference efficiency in BV2 cells. Total proteins were extracted and probed for p-Syk and Syk levels. […] (H) TNFα release in cell supernatant measured by ELISA. (I) IL-1β release in in cell supernatant measured by ELISA. […]
(In qPCR the cycle at which signal appears reflects the starting amount.)

The test system of data set [6] is TNF-α and IL-1β. The data set is described as follows: TNF-α and IL-1β release from BV2 cells (ELISA). The data set is classed as cell-based. The following applies: Aβ42-stimulated BV2 cells, cell supernatant. The protocol:
After behavior test, blood samples from each group of mice were collected. Serum was obtained by centrifuge at 12000 rpm for 10 min and the levels of TNF-α and IL-1β were measured using ELISA kits. Briefly, samples were added to the wells with a biotin-conjugated antibody specific to TNF-α or IL-1β. Then, Avidin conjugated to Horseradish Peroxidase (HRP) was added to each microplate well and incubated. […] Finally, stop solution was added to stop the reaction and the color change were measured at a wavelength of 450 nm by a microplate reader. The concentration of TNF-α or IL-1β in the samples were then determined by comparing the OD value of the samples to the standard curve.
as §1
In general terms: An ELISA detects its analyte on a solid surface through an enzyme-linked reagent.

The test system of data set [7] is Syk/NF-κB. Briefly: Syk/NF-κB activation in BV2 cells (western blot). The data set is classed as cell-based. The note with it: Aβ42-stimulated BV2 cells, siRNA targeting Dectin-1. The text has this: (§2) GAPDH was used as loading control. […] GAPDH was used as loading control. […] GAPDH was used as loading control. […] GAPDH was used as loading control.
The test system of data set [8] is Syk. Briefly: Syk phosphorylation in BV2 cells (western blot). Type of data set: cell-based. The following applies: 20 µM Bio-Aβ42, 45 min.
Source text: as §2

The test system of data set [9] is Dectin-1. The data set is described as follows: Pull-down with Bio-Aβ42 from BV2 lysates. The data set is classed as binding. The following applies: 100 µL of 20 μM biotinylated Aβ42 on streptavidin-agarose beads, lysate 24 h at 4°C; biotin control; Trem2 positive control. As for the experimental part: Lysates prepared from microglia cells and mouse brain tissues were then added to the streptavidin-agarose beads with biotinylated- Aβ42. The mixture was incubated for 24h at 4°C under gentle rocking. Samples were then spun and washed 3 times. Then, 5x loading buffer was added in the elution buffer and boiled for 10min, and the samples were used for western blot analysis. Total lysates were used as an input control.
Nuclei are counterstained with DAPI (blue) [scale bar = 5 μm]. (B) Bio-Aβ42 is added to streptavidin-agarose beads and incubated. Biotin alone was used as control. Lysates prepared from BV2 cells were added to beads. The eluent was loaded onto a polyacrylamide gel for western blot analysis. Total lysates were used as input controls. Trem2 was used as a positive control. (C) The Dectin-1-APP/ β-amyloid interaction is analyzed by co-immunoprecipitation in the brains of WT and model mice. […] Mean KD constant derived from five separate experiments. (E) 3D binding model of dectin-1 and amyloid beta peptide. The backbones of dectin-1 and amyloid beta peptide are shown as cartoons. The residues in dectin-1 are shown as cyan sticks, whereas the residues in amyloid beta-peptide are shown as wheat sticks. The hydrogen bonds are depicted as red dashed lines and the salt bridges are depicted as blue dashed lines.

In the case of “APP/β-amyloid: APP/β-amyloid protein used as bait with lysates from WT and Aβ42 brain tissues”, the “binding to Dectin-1 (co-IP)” value in [1] is “binds to the Dectin-1 protein in these lysates”.

As to “FITC-Aβ42: Aβ42 linked with a FITC label”, in data set [2], the “phagocytosis and clearance of FITC-Aβ42, effect of Dectin-1 deficiency” value is given as “did not affect the fluorescence intensity of Aβ”.

On to “siD1: siRNA targeting Dectin-1 gene; sense 5’-GGAGAAAUCCAGAGGAGAATT-3’, antisense 5’-UUCUCCUCUGGAUUUCUCCTT-3’ (chemistry not given here)”, for which, in data set [3], the “p65 nuclear translocation after Dectin-1 knockdown” value is “remarkably inhibited Aβ42-induced p65 nuclear translocation”. Also, in data set [4], the “PC12 damage by medium of siD1-treated microglia” value is given as “failed to damage PC12 cells”. The “mRNA levels of inflammatory genes Tnfa, Il1b, IL-6, Cox2, Inos” value in data set [5] was “significantly reversed”. The “TNF-α and IL-1β release after Dectin-1 knockdown” value in data set [6] was “decreased the release of the inflammatory factors TNF-α and IL-1β”. Also, the “Syk/NF-κB activity after Dectin-1 knockdown” value in data set [7] is listed as “this increased activity of Syk/NF-κB was not seen in Dectin-1-deficient BV2 cells”.

As for “Bio-Aβ42: biotin-labeled Amyloid beta peptide, obtained from GL Biochem”, in [8], the “Syk phosphorylation by Bio-Aβ42” value is “retained the Dectin-1 activating activity of Aβ42, as evidenced by the increased phosphorylation of Syk”. Moreover, in data set [9], the “binding to Dectin-1 (pull-down/Co-IP)” value was “Co-IP analysis further confirmed this result”.
